Experiment: in vitro
Settings: human, hela cells, % viability

| Structure (SMILES) | viability at 28.5 h, 10 µM |
| --- | --- |
| O=C(Nc1ccc(S(=O)(=O)N2CCOCC2)cc1)c1cc(-c2ccccc2)nc2ccccc12 [CBK264790] | 103% |
| O=C(NC1CCN(CC2(c3ccccc3)CC2)CC1)c1ccco1 [CBK285321] | 83.7% |
| Cc1ccc(N(Cc2cc3cccc(C)c3nc2O)C(=O)c2cccc([N+](=O)[O-])c2)cc1 [CBK265426] | 98.2% |
| Cc1ccc(S(=O)(=O)N(C)c2c(C)ccc(S(=O)(=O)N3CCN(C)CC3)c2C)cc1 [CBK265642] | 96.1% |
| CC1CCCC(C)N1CC(O)COc1ccc(/N=C/c2ccccc2)cc1 (centres unmarked) [CBK261764] | 78.5% |
| CC(C)NC(=O)N[C@H]1CC[C@]2(CC1)CC(=O)c1ccccc1O2 [CBK283389] | 111% |
| COc1ccccc1NC(=O)C(=O)NCCc1c[nH]c2ccccc12 [CBK266672] | 108% |
| Oc1ccc(-c2n[nH]cc2-c2cnn(-c3ccccc3)c2)c(O)c1O [CBK266948] | 104% |
| COc1ccc(C(NC(=O)c2cc(C)oc2CN2CCCC2)c2ccccc2)cc1 (centres unmarked) [CBK285573] | 118% |
| OCc1ccc(CN2Cc3nc[nH]c3C[C@H]2c2nc(Cc3ccccc3)no2)o1 [CBK288955] | 93.8% |
| COC(=O)c1c(NC(=O)c2ccccc2)csc1C [CBK026684] | 90.3% |
| O=c1nc(NS(=O)(=O)c2ccc(Oc3ccccc3)cc2)c(F)c[nH]1 [CBK067571] | 89.3% |
| COc1cccc2cc(C(=O)NCCCN3CCN(C)CC3)oc12 [CBK149788] | 101% |
| O=C(CSc1ncnc2ccccc12)NCc1ccco1 [CBK287509] | 98.8% |
| Cn1c(=O)n(C)c2cc(CNc3nn[nH]n3)ccc21 [CBK270243] | 92.4% |
| CCC(CN1CCN(C)CC1)NC(=O)Cc1coc2cc(C)ccc12 (centres unmarked) [CBK282790] | 102% |
| Cn1cc(C(=O)NC(Cc2cccs2)c2ccccn2)ccc1=O (centres unmarked) [CBK285209] | 112% |
| O=c1c2scc(-c3cccc(F)c3)c2ncn1Cc1ccc(F)cc1 [CBK287810] | 100% |
| CN(CC(=O)NCc1ccc(Cl)cc1)S(=O)(=O)Cc1ccc(C#N)cc1 [CBK305899] | 92.3% |
| O=C1Cc2ccccc2C2(CCN(C(=O)c3cccc4cccc(C(=O)O)c34)CC2)N1 [CBK047313] | 93.2% |
| Nn1c(COc2ccccc2)nnc1SCC(=O)c1ccc2c(c1)CCCC2 [CBK268466] | 100% |
| Cc1ccccc1NC(=O)CC(C(=O)O)N1CCOCC1 (centres unmarked) [CBK266969] | 113% |
| CC(=O)N(C)[C@H]1CC[C@]2(CC1)CNC(=O)c1cc(C)ccc1O2 [CBK281690] | 101% |

| Structure (SMILES) | viability at 28.5 h, 10 µM |
| --- | --- |
| CCNC(=O)NC[C@H]1C[C@@H]2CCN1C[C@@H]2c1cc(-c2ccccc2)nc(C)n1 [CBK289125] | 116% |
| O=C1CN(Cc2ccc3ccccc3n2)CCN1C1CCCC1 [CBK281961] | 88.6% |
| COc1ccc(/C=C2\S/C(=N\Cc3ccccc3)N(Cc3ccccc3)C2=O)cc1C(=O)O [CBK262715] | 104% |
| CCNC(=O)N1CC2(CCN(CCc3cccc4ccccc34)CC2)c2ccccc21 [CBK136965] | 94.7% |
| O=C(OCCc1c[nH]c2ccccc12)N1CCOCC1 [CBK200415] | 106% |
| CC(C)(C)Nc1cc(NCCc2ccccc2)nc(N)n1 [CBK012708] | 86.8% |
| O=C(O)C1CC=CCC1C(=O)Nc1ccc(S(=O)(=O)N2CCc3ccccc32)cc1 (centres unmarked) [CBK268122] | 108% |
| NS(=O)(=O)c1ccc(NC(=O)CSc2cccc3ccccc23)cc1 [CBK268987] | 93.2% |
| COc1ccc(NC(=O)C(OC)c2ccccc2)cc1Cl (centres unmarked) [CBK264098] | 95.2% |
| CCCCOC(=O)c1c(N)n(CCOC)c2nc3ccccc3nc12 [CBK264961] | 96.9% |
| Cc1nccn1CC1(O)CCN(Cc2cn(C)c3ccccc23)CC1 [CBK285017] | 102% |
| NC(=O)C(=O)c1c(-c2ccccc2)cc2ccccn12 [CBK288466] | 100% |
| Cc1ccc(Cl)cc1NC(=O)c1cnc2scc(C)n2c1=O [CBK287464] | 98.7% |
| Clc1ccc(CN2CCC(Oc3cncc(OCc4cccnc4)n3)C2)cc1Cl (centres unmarked) [CBK084448] | 84% |
| CCCOc1ccc(S(=O)(=O)NCCN2CCOCC2)c2ccccc12 [CBK269045] | 99.1% |
| Cc1cccc(C)c1NC(=O)CC(C(=O)O)N(C)C (centres unmarked) [CBK267022] | 90.9% |
| CC(=O)Nc1ccc(-n2cc(COC3CCN(C(=O)OC(C)(C)C)CC3)nn2)cc1 [CBK149481] | 121% |
| O=C(NCCN1CCN(C(=O)Nc2ccccc2)CC1)C1CCCC1 [CBK305915] | 95.8% |
| O=S(=O)(Nc1nc2c(s1)CCCC2)c1cc(Cl)ccc1Cl [CBK096578] | 98.7% |
| COc1cc(CNCCc2c[nH]c3ccccc23)cc(Cl)c1OC [CBK269861C] | 88.5% |
| O=C(C1=C(O)C(=O)N(CCCn2ccnc2)C1c1ccncc1)c1cccs1 (centres unmarked) [CBK111017] | 106% |
| COC(=O)C1=C(C)N=C2SCCC(=O)N2C1c1ccc(C(C)C)cc1 (centres unmarked) [CBK073523] | 109% |
| CC(=O)CSc1nsc(SCC(C)=O)n1 [CBK006702] | 89.6% |

| Structure (SMILES) | viability at 28.5 h, 10 µM |
| --- | --- |
| COc1ccc(C(CC(=O)O)c2ccc3c(c2)OCCO3)cc1OC (centres unmarked) [CBK287121] | 87% |
| O=C(Cc1c[nH]c2ccccc12)N1CCC2(CCCN(C(=O)c3ccc(OC(F)(F)F)cc3)C2)C1 (centres unmarked) [CBK131579] | 97.8% |
| CC(C)(C)c1cc(CN2CCN(c3ccccn3)CC2)cc(C(C)(C)C)c1O [CBK261520] | 117% |
| CS(=O)(=O)N1CC2(CCN(CC(N)=O)CC2)c2ccccc21 [CBK126678] | 81.5% |
| FC(F)(F)c1ccc(OCCN2CCNCC2)nc1 [CBK113462] | 110% |
| NC(=O)CCN1CCCC2(CCN(C(=O)c3ccoc3)C2)C1 (centres unmarked) [CBK132816] | 96.9% |
| COC(=O)c1ccc(NC(=O)CN2CCC(C(N)=O)(N3CCCCC3)CC2)cc1 [CBK268275] | 95.5% |
| CNC(=O)Oc1cc(C)c(SC)c(C)c1 [CBK010586] | 77.2% |
| CSCCC(=O)Nc1cc(C)nc2ccccc12 [CBK122729] | 108% |
| CCn1c(SCc2cc(Cl)c3c(c2)OCCO3)nnc1-c1ccc(OC)cc1 [CBK297086] | 88.9% |
| O=C(N[C@H]1CCN(Cc2ccccc2)C1)c1cnc(-c2ccccc2)c(-c2ccncc2)c1 [CBK036639] | 84.7% |
| O=[N+]([O-])c1ccc(CSc2nnc(-c3cccnc3)n2Cc2ccco2)cc1 [CBK264580] | 106% |
| COCCn1nnnc1C(c1cc2cc(C)ccc2[nH]c1=O)N1CCN(C(=O)c2ccco2)CC1 (centres unmarked) [CBK111562] | 80.3% |
| O=C(Nc1nc(-c2ccncc2)cs1)C1COc2ccccc2O1 (centres unmarked) [CBK287370] | 96.7% |
| CN1C2CCC1CC(OC(=O)CN1CCCCC1)C2 (centres unmarked) [CBK278166C] | 109% |
| O=C(Cn1cnc2ccccc2c1=O)NCCc1ccsc1 [CBK287844] | 92.6% |
| O=S(=O)(Nc1ccc(Cc2ccncc2)cc1)N1CCCC1 [CBK268263] | 112% |
| c1coc(-c2cc(NC3CCCCC3)ncn2)c1 [CBK090901] | 91.2% |
| CN1CCC(C(=O)N2CCCc3ccccc32)CC1 [CBK200260] | 95% |
| N#C/C(=C/c1cc(Cl)c(OCc2ccc([N+](=O)[O-])cc2)c(Cl)c1)c1ccc(C(=O)O)cc1 [CBK269098] | 105% |
| COc1cccc(COc2nccnc2/C=C/c2ccccc2)c1OC [CBK106888] | 89.3% |
| Cc1cccnc1C(NC(=O)C1CCN(C/C=C/c2ccco2)CC1)c1ccc(Cl)cc1 (centres unmarked) [CBK148201] | 90% |
| CC(=O)NC1CCN(CC2(c3ccc(F)cc3)CCCC2)CC1 [CBK283327] | 89% |

| Structure (SMILES) | viability at 28.5 h, 10 µM |
| --- | --- |
| CCOc1cc(OCC)cc(C(=O)Nc2ccc(-c3nc4ncccc4o3)cc2)c1 [CBK263440] | 96.8% |
| C/C(=N\Nc1ccc(Cl)c(Cl)c1)c1cccnc1 [CBK015914C] | 93.3% |
| Cc1[nH]c(=S)[nH]c(=O)c1Cc1cccc2ccccc12 [CBK115563] | 82.4% |
| Cc1ccc(-n2c3c(cc(C(=O)NCCCN4CCOCC4)c2=O)C(=O)CCC3)cc1 [CBK266094] | 115% |
| Cc1nc(COc2ccc(C(=O)Nc3ccc(C(=O)O)cc3C)cc2)cs1 [CBK295360] | 91.3% |
| c1ccc(C2CCCNC2)cc1 (centres unmarked) [CBK011753] | 100% |
| O=C1NC2(CCCCCC2)C(=O)N1Cc1cnn(-c2ccccc2)n1 [CBK305571] | 100% |
| CCN(CC)c1cc(N2CCCNCC2)ccc1S(=O)(=O)c1cccc(F)c1 [CBK018509C] | 101% |
| Cc1ccc2c(c1)C1(CC(=O)N(CC(=O)O)C1=O)C(=O)N2C (centres unmarked) [CBK076104] | 96.8% |
| O=C(Nc1cccc(Cl)c1)C1CCC(C(=O)Nc2cccc(Cl)c2)CC1 (centres unmarked) [CBK269136] | 85.8% |
| CCc1nn(CCN2CCCC2)c(=O)c2cc3sc(C)cc3n12 [CBK284098] | 88.5% |
| O=S(=O)(c1cccc(S(=O)(=O)N2CCOCC2)c1)c1ccc(Cl)c(S(=O)(=O)N2CCOCC2)c1 [CBK261260] | 104% |
| Cc1c(OCc2ccccc2)ccc2c1OC1(CCN(C(=O)c3ccsc3)CC1)CC2=O [CBK156445] | 109% |
| CC(C)CCC(=O)Nc1ccc(N2CCN(C(=O)c3ccccc3C(F)(F)F)CC2)nn1 [CBK138629] | 100% |
| CCC(NC(=O)c1cc(CC(C)C)nn1CC)c1cn2cccnc2n1 (centres unmarked) [CBK307505] | 101% |
| COCCn1c(=O)n(Cc2ccc(F)cc2)c2cccnc21 [CBK283886] | 81% |
| O=C(O)C1C2C=CC(C2)C1C(=O)N1CCN(Cc2ccc(Cl)cc2)CC1 (centres unmarked) [CBK270318] | 83.8% |
| Nc1cc(S(=O)(=O)O)c2cccnc2c1O [CBK278176] | 75.4% |
| O=S(=O)(N1CCCCCC1)N1CCN(S(=O)(=O)N2CCOCC2)CC1 [CBK269152] | 100% |
| CC(CCc1ccccc1)N1CCN(S(=O)(=O)c2ccc3ccccc3c2)CC1 (centres unmarked) [CBK264240] | 104% |
